The values that follow come from patent publication US9878007B2, “Syndecan peptides and polypeptides as inhibitors of vascular endothelial growth factor receptor-2 (VEGFR2) and very late antigen-4 (VLA-4)” (Wisconsin Alumni Research Foundation, priority 2015, dated 2018).

This assay addresses T1, VEGFR2 and VLA-4 (Homo sapiens, UniProt P05556+P13612+P35968).
T1 construct: the α4-integrin (VLA-4), which is expressed on myeloma cells; endogenous in cells; host or cells: CAG human myeloma cells (HPSE^low / HPSE^high) plated on fibronectin
Briefly: Activation / inhibition of Sdc1-mediated coupling of VEGFR2 to VLA-4 (FIGS. 6A-H). The assay is classed as cell-based. As to the method:
FIGS. 6A-G. Peptides derived from the active site in Sdc1 activate or inhibit adhesion and invasion. (FIG. 6A) Transwell migration assays towards FN (for 16 hrs) were performed for HPSE low or high cells in the presence of 0, 0.3, 3, and 30 μM of S1ED^210-240. Cells migrating to the bottom side of the filter were counted from five random images for each treatment. (FIG. 6B) The sequence of S1ED210-240 is shown (SEQ ID NO: 3), as well as […] truncation mutants of the peptide (SEQ ID NOs: 5, 2, 4 and 7). Amino acids shown in red appear necessary for the spreading and invasive activity. (FIG. 6C) Images of HPSE^low and HPSE^high cells plated on FN for 2 hr. (FIG. 6D) HPSE^low cells were treated with 0, 0.3, 3, 10 and 30 μM of S1ED^210-236, S1ED^210-233, or S1ED^214-240, plated on FN for 2 hr, fixed and stained with fluorescent phalloidin. Cells from five random images were quantified for cell attachment and cell spreading. (FIG. 6E) HPSE^high cells were treated with 0, 3, 10, and 30 μM of S1ED^210-236, S1ED^210-233, and S1ED^214-240, plated on FN for 2 hr, then fixed, imaged and quantified as in FIG. 6D. (FIG. 6F) Transwell migration assays towards FN (for 16 hr) were performed for HPSE^low or HPSE^high cells in the presence of 30 μM of S1ED^210-236, S1ED^210-233, S1ED^214-240 and Vandetanib. (FIG. 6G) HPSE^low cell lysates were incubated overnight with glutathione beads coated with GST or GST-S1ED in the absence or presence of 30 μM of S1ED^210-236, S1ED^210-233, and S1ED^214-240. Capture of VLA-4 or VEGFR2 was detected by immunoblotting. Sequences in FIG. 6B are 210-240 (SEQ ID NO: 3), 210-236 (SEQ ID NO: 2), 210-233 (SEQ ID NO: 4), 214-240 (SEQ ID NO: 5) and 214-236 (SEQ ID NO: 7).
It is envisioned that a peptide that contains binding sites for both VEGFR2 and VLA-4, such as 210-236, has the capacity to bridge both receptors and link them together. This activates signaling that the cells use for migration and invasion. […]

pEC50, pIC50: −log10 of the molar value. No end group written: not given here.

T1 sequence (P35968 20-1356): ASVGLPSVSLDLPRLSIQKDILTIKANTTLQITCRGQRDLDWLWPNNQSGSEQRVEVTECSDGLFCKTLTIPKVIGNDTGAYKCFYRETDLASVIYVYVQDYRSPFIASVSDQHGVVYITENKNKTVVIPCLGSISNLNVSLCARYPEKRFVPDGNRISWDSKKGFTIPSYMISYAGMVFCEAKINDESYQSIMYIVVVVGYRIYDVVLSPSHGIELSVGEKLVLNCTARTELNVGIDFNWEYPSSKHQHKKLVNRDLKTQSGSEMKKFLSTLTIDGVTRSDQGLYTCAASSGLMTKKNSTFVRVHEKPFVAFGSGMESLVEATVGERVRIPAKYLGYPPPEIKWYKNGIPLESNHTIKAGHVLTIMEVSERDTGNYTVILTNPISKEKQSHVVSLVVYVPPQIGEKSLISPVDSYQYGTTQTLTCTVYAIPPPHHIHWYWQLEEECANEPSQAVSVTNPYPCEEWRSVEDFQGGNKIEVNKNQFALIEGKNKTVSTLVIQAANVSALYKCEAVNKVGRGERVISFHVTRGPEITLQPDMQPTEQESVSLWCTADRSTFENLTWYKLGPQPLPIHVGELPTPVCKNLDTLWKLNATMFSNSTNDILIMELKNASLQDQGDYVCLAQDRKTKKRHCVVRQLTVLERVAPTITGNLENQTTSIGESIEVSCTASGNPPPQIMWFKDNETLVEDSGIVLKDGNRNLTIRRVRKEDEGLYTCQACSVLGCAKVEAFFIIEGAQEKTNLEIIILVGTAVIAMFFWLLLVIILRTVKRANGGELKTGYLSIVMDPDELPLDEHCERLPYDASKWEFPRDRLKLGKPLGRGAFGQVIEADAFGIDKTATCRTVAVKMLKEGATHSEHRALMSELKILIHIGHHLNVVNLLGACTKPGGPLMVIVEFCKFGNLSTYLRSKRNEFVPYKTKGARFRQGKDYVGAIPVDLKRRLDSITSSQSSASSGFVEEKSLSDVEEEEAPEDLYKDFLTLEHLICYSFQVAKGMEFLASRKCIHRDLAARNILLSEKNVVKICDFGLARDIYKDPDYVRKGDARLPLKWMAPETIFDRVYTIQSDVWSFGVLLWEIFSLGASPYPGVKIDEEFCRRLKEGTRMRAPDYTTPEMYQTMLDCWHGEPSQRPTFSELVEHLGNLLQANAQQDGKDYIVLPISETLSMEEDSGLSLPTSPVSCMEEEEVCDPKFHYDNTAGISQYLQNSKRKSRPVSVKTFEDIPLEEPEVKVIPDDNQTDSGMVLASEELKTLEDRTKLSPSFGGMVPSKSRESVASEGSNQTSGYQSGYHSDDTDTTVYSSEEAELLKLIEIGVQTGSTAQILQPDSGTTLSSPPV
T1 sequence (P13612 34-1032): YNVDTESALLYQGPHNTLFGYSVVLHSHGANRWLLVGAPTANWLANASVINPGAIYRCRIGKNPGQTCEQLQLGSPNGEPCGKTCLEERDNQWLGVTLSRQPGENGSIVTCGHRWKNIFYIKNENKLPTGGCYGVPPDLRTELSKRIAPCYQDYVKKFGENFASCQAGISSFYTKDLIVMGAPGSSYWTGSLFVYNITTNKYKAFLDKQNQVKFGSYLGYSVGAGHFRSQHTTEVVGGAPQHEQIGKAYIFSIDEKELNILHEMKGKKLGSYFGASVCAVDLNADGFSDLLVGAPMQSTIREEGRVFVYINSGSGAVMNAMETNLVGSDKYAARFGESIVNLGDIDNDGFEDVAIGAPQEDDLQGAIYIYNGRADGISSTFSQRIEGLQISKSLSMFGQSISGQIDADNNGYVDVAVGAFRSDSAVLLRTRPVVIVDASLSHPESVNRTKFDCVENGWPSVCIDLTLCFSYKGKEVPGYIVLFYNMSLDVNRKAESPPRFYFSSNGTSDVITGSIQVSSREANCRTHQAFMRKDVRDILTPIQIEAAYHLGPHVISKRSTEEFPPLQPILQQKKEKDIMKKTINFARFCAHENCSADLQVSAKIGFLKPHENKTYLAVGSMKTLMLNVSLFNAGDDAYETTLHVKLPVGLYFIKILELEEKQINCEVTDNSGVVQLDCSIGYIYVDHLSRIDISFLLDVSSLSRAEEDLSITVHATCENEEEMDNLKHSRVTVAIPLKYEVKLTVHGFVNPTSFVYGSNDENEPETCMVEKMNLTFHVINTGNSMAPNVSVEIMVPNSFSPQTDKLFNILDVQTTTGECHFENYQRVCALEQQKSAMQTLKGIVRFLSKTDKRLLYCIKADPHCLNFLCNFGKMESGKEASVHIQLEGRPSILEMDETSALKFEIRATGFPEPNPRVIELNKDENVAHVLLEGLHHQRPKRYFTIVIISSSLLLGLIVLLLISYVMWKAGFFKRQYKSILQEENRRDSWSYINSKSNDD
T1 sequence (P05556 21-798): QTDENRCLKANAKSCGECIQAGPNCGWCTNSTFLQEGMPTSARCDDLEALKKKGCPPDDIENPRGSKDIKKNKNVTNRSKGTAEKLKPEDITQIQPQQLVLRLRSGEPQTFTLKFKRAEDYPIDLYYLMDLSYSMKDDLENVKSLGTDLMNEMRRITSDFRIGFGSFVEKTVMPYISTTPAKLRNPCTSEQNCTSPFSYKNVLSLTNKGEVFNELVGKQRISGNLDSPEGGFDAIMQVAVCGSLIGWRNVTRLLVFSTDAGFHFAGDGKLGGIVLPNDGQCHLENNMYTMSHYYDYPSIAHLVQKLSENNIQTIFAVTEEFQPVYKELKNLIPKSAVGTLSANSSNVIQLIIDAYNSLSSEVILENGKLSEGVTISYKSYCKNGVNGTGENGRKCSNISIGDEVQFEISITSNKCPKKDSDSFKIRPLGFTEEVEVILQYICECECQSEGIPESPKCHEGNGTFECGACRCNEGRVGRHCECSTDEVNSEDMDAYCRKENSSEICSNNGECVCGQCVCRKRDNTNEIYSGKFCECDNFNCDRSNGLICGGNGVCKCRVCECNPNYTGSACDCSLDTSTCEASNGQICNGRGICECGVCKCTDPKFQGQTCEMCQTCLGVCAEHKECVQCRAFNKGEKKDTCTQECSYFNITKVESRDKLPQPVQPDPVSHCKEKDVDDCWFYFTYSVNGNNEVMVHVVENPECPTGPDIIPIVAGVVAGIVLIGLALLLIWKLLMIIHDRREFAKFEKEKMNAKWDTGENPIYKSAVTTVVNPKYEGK

As for “DFTFETSGENTAVVAVEPDRRNQSPVD [S1ED^210-236]”, the pEC50 (FIGS. 6A-H, read-out: EC50 of bridging VEGFR2 and VLA-4, activating signaling used for migration and invasion) is 6.52. For the same sequence, the pIC50 (read-out: IC50 as inhibitor of the VLA-4/VEGFR2 coupling mechanism) is 5.00.
